Reference: article PMC5161573 (Nature, 2016)

Target: α4β2 nicotinic receptor (α4 subunit) (Homo sapiens, UniProt P17787+P43681, P17787:INS355ER/P17787:DEL356-441/P43681:INS364ER/P43681:DEL365-581)

## CN1CCC[C@H]1c1cccnc1 [nicotine]
  X-ray co-crystal structure at 3.9 Å: Nicotine binds in the classical neurotransmitter site at the α-β interface, almost fully buried from solvent.
